Reference: patent US12187723B2 (BRISTOL-MYERS SQUIBB COMPANY, priority 2019, dated 2025)

Legend:
[1] = biological target: T1, human TLR8 (Homo sapiens, UniProt Q9NR97); test: TLR8 inhibition reporter assay (HEK-Blue SEAP); type: cell-based; conditions: HEK-Blue cells overexpressing human TLR8, R848 15.9 μM, 22 hour incubation
T1 construct: host or cells: HEK-Blue cells
T1 sequence (Q9NR97 27-1041): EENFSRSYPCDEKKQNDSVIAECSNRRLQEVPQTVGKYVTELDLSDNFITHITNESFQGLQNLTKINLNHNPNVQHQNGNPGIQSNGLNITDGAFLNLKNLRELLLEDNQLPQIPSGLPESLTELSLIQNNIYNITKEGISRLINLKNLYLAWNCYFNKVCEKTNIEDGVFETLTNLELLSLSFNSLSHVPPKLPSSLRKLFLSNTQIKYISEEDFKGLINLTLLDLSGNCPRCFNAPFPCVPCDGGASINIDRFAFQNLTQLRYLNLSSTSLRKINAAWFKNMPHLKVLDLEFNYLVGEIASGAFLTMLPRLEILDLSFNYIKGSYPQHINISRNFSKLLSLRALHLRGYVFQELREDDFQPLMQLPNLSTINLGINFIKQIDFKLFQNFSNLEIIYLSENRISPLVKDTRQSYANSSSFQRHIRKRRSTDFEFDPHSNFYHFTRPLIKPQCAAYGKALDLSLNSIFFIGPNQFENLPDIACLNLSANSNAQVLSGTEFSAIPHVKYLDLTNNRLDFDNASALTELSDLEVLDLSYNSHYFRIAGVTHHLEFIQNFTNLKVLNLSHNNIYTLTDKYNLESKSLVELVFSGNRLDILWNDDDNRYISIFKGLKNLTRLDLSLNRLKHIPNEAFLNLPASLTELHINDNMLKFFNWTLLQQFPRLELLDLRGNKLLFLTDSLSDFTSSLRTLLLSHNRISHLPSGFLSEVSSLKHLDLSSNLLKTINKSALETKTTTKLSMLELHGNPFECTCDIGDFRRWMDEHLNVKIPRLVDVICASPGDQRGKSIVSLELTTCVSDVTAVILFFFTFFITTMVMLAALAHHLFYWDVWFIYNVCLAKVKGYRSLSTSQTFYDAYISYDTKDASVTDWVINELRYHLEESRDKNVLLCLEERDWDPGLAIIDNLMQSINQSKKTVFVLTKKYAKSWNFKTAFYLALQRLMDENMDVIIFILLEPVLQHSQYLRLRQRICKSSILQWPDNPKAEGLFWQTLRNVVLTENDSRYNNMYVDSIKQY
Procedure, shortened: (§1)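 Dose–response from 0.05 nM to 50 μM was run in HEK-Blue human TLR7, TLR8 and TLR9 reporter cells. After 30 min at room temperature with compound, ligand was added (TLR7 gardiquimod 7.5 μM; TLR8 R848 15.9 μM; TLR9 ODN2006 5 nM) and SEAP measured next day, at 22 h.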

[2] = biological target: T2, human TLR9 (Homo sapiens, UniProt Q9NR96); test: TLR9 inhibition reporter assay (HEK-Blue SEAP); type: cell-based; conditions: HEK-Blue cells overexpressing human TLR9, ODN2006 5 nM, 22 hour incubation
T2 construct: host or cells: HEK-Blue cells
T2 sequence (Q9NR96 26-1032): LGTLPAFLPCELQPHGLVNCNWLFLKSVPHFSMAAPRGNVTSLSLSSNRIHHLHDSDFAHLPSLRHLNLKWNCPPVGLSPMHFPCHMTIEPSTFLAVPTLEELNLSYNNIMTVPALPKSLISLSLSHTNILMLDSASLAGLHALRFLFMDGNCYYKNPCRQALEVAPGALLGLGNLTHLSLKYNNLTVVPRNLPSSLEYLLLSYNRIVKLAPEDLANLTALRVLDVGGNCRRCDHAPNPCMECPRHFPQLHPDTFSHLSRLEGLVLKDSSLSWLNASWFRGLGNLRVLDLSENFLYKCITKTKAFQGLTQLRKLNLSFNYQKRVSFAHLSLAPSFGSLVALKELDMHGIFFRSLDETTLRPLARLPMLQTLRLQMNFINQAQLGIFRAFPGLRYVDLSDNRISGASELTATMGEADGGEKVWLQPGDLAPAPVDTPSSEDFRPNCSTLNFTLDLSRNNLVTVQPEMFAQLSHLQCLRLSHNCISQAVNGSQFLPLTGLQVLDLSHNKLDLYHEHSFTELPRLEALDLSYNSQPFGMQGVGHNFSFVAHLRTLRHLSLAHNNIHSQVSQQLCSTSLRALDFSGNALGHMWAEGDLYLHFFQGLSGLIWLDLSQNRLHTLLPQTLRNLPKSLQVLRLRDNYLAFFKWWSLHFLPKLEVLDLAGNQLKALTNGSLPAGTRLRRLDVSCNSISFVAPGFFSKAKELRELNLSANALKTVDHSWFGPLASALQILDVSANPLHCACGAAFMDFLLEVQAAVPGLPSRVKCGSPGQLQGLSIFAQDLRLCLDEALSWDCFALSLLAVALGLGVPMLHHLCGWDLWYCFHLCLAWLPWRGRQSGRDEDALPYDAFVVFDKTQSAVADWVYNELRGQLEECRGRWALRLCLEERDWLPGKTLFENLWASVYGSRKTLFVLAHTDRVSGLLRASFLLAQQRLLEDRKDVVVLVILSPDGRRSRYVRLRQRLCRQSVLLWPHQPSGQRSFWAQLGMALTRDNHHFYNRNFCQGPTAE
Procedure, shortened: as §1

`COc1cc(-c2cc3[nH]c(=O)n([C@@H]4CCCN(C5CCOC5)C4)c3cc2C(C)C)cn2ncnc12` (stereo partly drawn) [Example 217, 6-isopropyl-5-(8-methoxy-[1,2,4]triazolo[1,5-a]pyridin-6-yl)-1-((3R)-1-(tetrahydrofuran-3-yl)piperidin-3-yl)-1,3-dihydro-2H-benzo[d]imidazol-2-one] was tested, and the IC50 [1] was 5.4 nM and the IC50 [2] was greater than 50000 nM.
Compound `COc1cc(-c2cc3[nH]c(=O)n([C@H]4CCCN(CC(N)=O)C4)c3cc2C(C)C)cn2ncnc12` [Example 220, (S)-2-(3-(6-isopropyl-5-(8-methoxy-[1,2,4]triazolo[1,5-a]pyridin-6-yl)-2-oxo-2,3-dihydro-1H-benzo[d]imidazol-1-yl)piperidin-1-yl)acetamide] has an IC50 [1] of 100 nM and an IC50 [2] greater than 50000 nM.
Compound `COCCN1CCC[C@H](n2c(=O)[nH]c3cc(-c4cc(OC)c5ncnn5c4)c(C(C)C)cc32)C1` [Example 221, (S)-6-isopropyl-5-(8-methoxy-[1,2,4]triazolo[1,5-a]pyridin-6-yl)-1-(1-(2-methoxyethyl)piperidin-3-yl)-1,3-dihydro-2H-benzo[d]imidazol-2-one] has an IC50 [1] of 5.67 nM and an IC50 [2] of 20600 nM.
Compound `COc1cc(-c2cc3[nH]c(=O)n([C@H]4CCCN(CCS(C)(=O)=O)C4)c3cc2C(C)C)cn2ncnc12` [Example 222, (S)-6-isopropyl-5-(8-methoxy-[1,2,4]triazolo[1,5-a]pyridin-6-yl)-1-(1-(2-(methylsulfonyl)ethyl)piperidin-3-yl)-1,3-dihydro-2H-benzo[d]imidazol-2-one] has an IC50 [1] of 53.2 nM and an IC50 [2] greater than 50000 nM.
With `COCCN1CCC(n2c(=O)[nH]c3cc(-c4cc(OC)c5ncnn5c4)c(C(C)C)cc32)CC1` [Example 223, 6-isopropyl-5-(8-methoxy-[1,2,4]triazolo[1,5-a]pyridin-6-yl)-1-(1-(2-methoxyethyl)piperidin-4-yl)-1,3-dihydro-2H-benzo[d]imidazol-2-one] the IC50 [1] was 9.01 nM and the IC50 [2] was 13200 nM.
In the case of `COc1cc(-c2cc3[nH]c(=O)n(C4CCN(CCS(C)(=O)=O)CC4)c3cc2C(C)C)cn2ncnc12` [Example 224, 6-isopropyl-5-(8-methoxy-[1,2,4]triazolo[1,5-a]pyridin-6-yl)-1-(1-(2-(methylsulfonyl)ethyl)piperidin-4-yl)-1,3-dihydro-2H-benzo[d]imidazol-2-one], the IC50 [1] is reported as 25.5 nM and the IC50 [2] is reported as greater than 50000 nM.
With `COCCN1CCC[C@@H](n2c(=O)[nH]c3cc(-c4cc(OC)c5ncnn5c4)c(C(C)C)cc32)C1` [Example 226, (R)-6-isopropyl-5-(8-methoxy-[1,2,4]triazolo[1,5-a]pyridin-6-yl)-1-(1-(2-methoxyethyl)piperidin-3-yl)-1,3-dihydro-2H-benzo[d]imidazol-2-one] the IC50 [1] was 4.15 nM and the IC50 [2] was 14200 nM.
For `CCc1cc2c(cc1-c1cc(OC)c3ncnn3c1)[nH]c(=O)n2[C@@H]1CCCN(CCOC)C1` [Example 227, (R)-6-ethyl-5-(8-methoxy-[1,2,4]triazolo[1,5-a]pyridin-6-yl)-1-(1-(2-methoxyethyl)piperidin-3-yl)-1,3-dihydro-2H-benzo[d]imidazol-2-one], the IC50 [1] was 4.42 nM and the IC50 [2] was 15200 nM.
Work on `CCc1cc2c(cc1-c1cc(OC)c3ncnn3c1)[nH]c(=O)n2[C@@H]1CCCN(C(=O)CN(C)C)C1` [Example 228, (R)-1-(1-(dimethylglycyl)piperidin-3-yl)-6-ethyl-5-(8-methoxy-[1,2,4]triazolo[1,5-a]pyridin-6-yl)-1,3-dihydro-2H-benzo[d]imidazol-2-one] yielded an IC50 [1] of 38.7 nM and an IC50 [2] of 14100 nM.
For `COc1cc(-c2cc3[nH]c(=O)n(C4CCC(N5CCCC5)CC4)c3cc2C(C)C)cn2ncnc12` (centres unmarked) [Example 231, 6-isopropyl-5-(8-methoxy-[1,2,4]triazolo[1,5-a]pyridin-6-yl)-1-(4-(pyrrolidin-1-yl)cyclohexyl)-1,3-dihydro-2H-benzo[d]imidazol-2-one], the IC50 [1] was 0.81 nM and the IC50 [2] was 15100 nM.
For `COc1cc(-c2cc3[nH]c(=O)n(C4CCC(N5CCCC5)CC4)c3cc2C(C)C)cn2ncnc12` (centres unmarked) [Example 232, 6-isopropyl-5-(8-methoxy-[1,2,4]triazolo[1,5-a]pyridin-6-yl)-1-(4-(pyrrolidin-1-yl)cyclohexyl)-1,3-dihydro-2H-benzo[d]imidazol-2-one], the IC50 [1] was 0.44 nM and the IC50 [2] was 7780 nM.
`COc1cc(-c2cc3[nH]c(=O)n(C4CCC(N5CC(OC)C5)CC4)c3cc2C(C)C)cn2ncnc12` (centres unmarked) [Example 237, 6-isopropyl-5-(8-methoxy-[1,2,4]triazolo[1,5-a]pyridin-6-yl)-1-(4-(3-methoxyazetidin-1-yl)cyclohexyl)-1,3-dihydro-2H-benzo[d]imidazol-2-one] showed an IC50 [1] of 0.33 nM and an IC50 [2] of 11300 nM.
With `COc1cc(-c2cc3[nH]c(=O)n(C4CCC(N5CC(OC)C5)CC4)c3cc2C(C)C)cn2ncnc12` (centres unmarked) [Example 238, 6-isopropyl-5-(8-methoxy-[1,2,4]triazolo[1,5-a]pyridin-6-yl)-1-(4-(3-methoxyazetidin-1-yl)cyclohexyl)-1,3-dihydro-2H-benzo[d]imidazol-2-one] the IC50 [1] was 0.26 nM and the IC50 [2] was 8090 nM.
With `COc1cc(-c2cc3[nH]c(=O)n(C4CCC(N5CCC6(CC5)COC6)CC4)c3cc2C(C)C)cn2ncnc12` (centres unmarked) [Example 239, 1-(4-(2-oxa-7-azaspiro[3.5]nonan-7-yl)cyclohexyl)-6-isopropyl-5-(8-methoxy-[1,2,4]triazolo[1,5-a]pyridin-6-yl)-1,3-dihydro-2H-benzo[d]imidazol-2-one] the IC50 [1] was 0.21 nM and the IC50 [2] was 13000 nM.
`COc1cc(-c2cc3[nH]c(=O)n(C4CCC(N5CCC6(CC5)COC6)CC4)c3cc2C(C)C)cn2ncnc12` (centres unmarked) [Example 240, 1-(4-(2-oxa-7-azaspiro[3.5]nonan-7-yl)cyclohexyl)-6-isopropyl-5-(8-methoxy-[1,2,4]triazolo[1,5-a]pyridin-6-yl)-1,3-dihydro-2H-benzo[d]imidazol-2-one] gave an IC50 [1] of 0.13 nM and an IC50 [2] of 4430 nM.
`COc1cc(-c2cc3[nH]c(=O)n(C4CCC(N5CCNC(=O)C5)CC4)c3cc2C(C)C)cn2ncnc12` (centres unmarked) [Example 243, 6-isopropyl-5-(8-methoxy-[1,2,4]triazolo[1,5-a]pyridin-6-yl)-1-(4-(3-oxopiperazin-1-yl)cyclohexyl)-1,3-dihydro-2H-benzo[d]imidazol-2-one] showed an IC50 [1] of 81.5 nM and an IC50 [2] greater than 50000 nM.
